Measurements as given in US8986729B2, “Palatable suspending vehicle for pharmaceutical ingredients” (Fagron, Inc., priority 2004, dated 2015).
Counter-ions that a name gives are not always drawn. Each block holds one molecule with its values, some of them ahead of it.

Experiments:
[1] = Subjective rating of drug suspensions immediately after preparation (ease of preparation, homogeneity, viscosity); format: physicochemical; conditions: for Homogeneity: scale 0-10, 0=drug settles completely and immediately, 10=consistently homogenous; for Viscosity: subjective scale 0-10, 0=water, 10=thick molasses; for phase separation of the suspending agent from the liquid phase: drug preparation in OO
Protocol: (§1) Suspensions of baclofen, bethanechol chloride, labetalol hydrochloride, verapamil hydrochloride, or ibuprofen were prepared in VE1 or OO. […] The wetted powder was incorporated into 50 ml VE1 or OO by geometric dilution and stored in individual non-opaque containers. […] The concentrations of the pharmaceutical compounds in suspension represent ‘typical’ prescribed preparations.
The suspensions were evaluated immediately after preparation with respect to ease of preparation, homogeneity, and viscosity by the pharmaceutical technician preparing the suspensions. The suspensions were rated on a subjective scale of 0-10: ease of preparation, 0=difficult, 10=very easy; homogeneity, 0=drug settles completely and immediately, 10=consistently homogenous in appearance along the vertical axis; viscosity, 0=water, 10=thick molasses.

[2] = Settling and resuspendability of drug suspensions after 7 days storage; format: physicochemical; conditions: for Settling: 7 days, dark, room temperature, scale 0-10, 10=none, 0=all at bottom; for Resuspendability: after 7 days, moderate shaking, scale 0-10, 10=perfectly homogenous
Protocol: as §1
The suspensions were stored in the dark at room temperature for 7 days and then settling of the drugs and resuspendability of sedimented drug in OO or VE1 was evaluated. Settling and resuspendability of the drugs was rated on a subjective scale of 0-10: settling (how much product apparent at bottom of container, 10=none, 0=all); resuspendability (how homogenous does the product appear after moderate shaking, 10=perfectly homogenous, 0=not homogenous (heterogeneous)). Resuspendability of sedimented ingredients was evaluated after evaluation of settling. The suspensions were shaken deliberately (stepwise), with frequent inspections of the bottom of the container.

[3] = drug suspension in OO, listed as bethanechol chloride
[4] = drug suspension in OO, listed as ibuprofen
[5] = drug suspension in OO, hydrochloride
[6] = drug suspension in OO, listed as verapamil hydrochloride, hydrochloride

Compound: CC(C[N+](C)(C)C)OC(N)=O (stereo not drawn) [Bethanechol Chloride, bethanechol chloride]
Homogeneity ([1]; drug suspension in OO): 9 | Viscosity ([1]; drug suspension in OO): 5 | Homogeneity ([1]; drug suspension in VE1): 9 | Viscosity ([1]; drug suspension in VE1): 7 | Settling ([2]; drug suspension in OO): 6 | Settling [2, 3]: minimal to moderate sedimentation | Resuspendability ([2]; drug suspension in OO): 9 | Resuspendability [2, 3]: easily resuspended | Settling ([2]; drug suspension in VE1): 8 | Resuspendability ([2]; drug suspension in VE1): 9

Compound: CC(CCc1ccccc1)NCC(O)c1ccc(O)c(C(N)=O)c1 (stereo not drawn) [Labetalol Hydrochloride, labetalol hydrochloride]
phase separation of the suspending agent from the liquid phase [1]: phase separation | Homogeneity ([1]; drug suspension in OO): 3 | Viscosity ([1]; drug suspension in OO): 1 | Homogeneity ([1]; drug suspension in VE1): 9 | Viscosity ([1]; drug suspension in VE1): 7 | Settling [2, 5]: 2 | Settling ([2]; drug suspension in OO, listed as labetalol hydrochloride, hydrochloride): large portion | Resuspendability [2, 5]: 3 | Resuspendability ([2]; drug suspension in OO, listed as Labetalol hydrochloride, hydrochloride): more difficult to resuspend | Settling ([2]; drug suspension in VE1): 9 | Resuspendability ([2]; drug suspension in VE1): 9

Compound: COc1ccc(CCN(C)CCCC(C#N)(c2ccc(OC)c(OC)c2)C(C)C)cc1OC (stereo not drawn) [Verapamil Hydrochloride, verapamil hydrochloride]
phase separation of the suspending agent from the liquid phase [1]: phase separation | Homogeneity ([1]; drug suspension in OO): 8 | Viscosity ([1]; drug suspension in OO): 2 | Homogeneity ([1]; drug suspension in VE1): 9 | Viscosity ([1]; drug suspension in VE1): 7 | Settling [2, 5]: 2 | Settling [2, 6]: large portion | Resuspendability [2, 5]: 6 | Resuspendability [2, 6]: more difficult to resuspend | Settling ([2]; drug suspension in VE1): 7 | Resuspendability ([2]; drug suspension in VE1): 9

The remaining lines, values ahead:

Homogeneity ([1]; drug suspension in OO): 9 | Viscosity ([1]; drug suspension in OO): 6 | Homogeneity ([1]; drug suspension in VE1): 9 | Viscosity ([1]; drug suspension in VE1): 7 | Settling ([2]; drug suspension in VE1): 8 | Resuspendability ([2]; drug suspension in VE1): 9
Compound: NCC(CC(=O)O)c1ccc(Cl)cc1 (stereo not drawn) [Baclofen, baclofen]

Homogeneity ([1]; drug suspension in OO): 9 | Viscosity ([1]; drug suspension in OO): 4 | Homogeneity ([1]; drug suspension in VE1): 9 | Viscosity ([1]; drug suspension in VE1): 7 | Settling ([2]; drug suspension in OO): 7 | Settling [2, 4]: minimal to moderate sedimentation | Resuspendability ([2]; drug suspension in OO): 9 | Resuspendability [2, 4]: easily resuspended | Settling ([2]; drug suspension in VE1): 8 | Resuspendability ([2]; drug suspension in VE1): 9
Compound: CC(C)Cc1ccc(C(C)C(=O)O)cc1 (stereo not drawn) [Ibuprofen, ibuprofen]
